Assay results: PubChem BioAssay (NCI)
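96-well plates; 48 h exposure; 5 concentrations. Endpoints by linear interpolation between flanking doses. Not reached: highest tested concentration assigned. The concentration for full growth arrest is given as TGI.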

Tests used:
Experiment in all cases: NCI-60 cell line screen, 48 h
A498 renal = system: A498 renal
A549 NSCLC = system: A549 NSCLC
ACHN renal = system: ACHN renal
BT-549 breast = system: BT-549 breast
CAKI-1 renal = system: CAKI-1 renal
CCRF-CEM leukemia = system: CCRF-CEM leukemia
COLO 205 colon = system: COLO 205 colon
DU-145 prostate = system: DU-145 prostate
EKVX NSCLC = system: EKVX NSCLC
HCC-2998 colon = system: HCC-2998 colon
HCT-116 colon = system: HCT-116 colon
HCT-15 colon = system: HCT-15 colon
HL-60(TB) leukemia = system: HL-60(TB) leukemia
HOP-62 NSCLC = system: HOP-62 NSCLC
HOP-92 NSCLC = system: HOP-92 NSCLC
HS 578T breast = system: HS 578T breast
HT29 colon = system: HT29 colon
IGROV1 ovarian = system: IGROV1 ovarian
K-562 leukemia = system: K-562 leukemia
KM12 colon = system: KM12 colon
LOX IMVI melanoma = system: LOX IMVI melanoma
M14 melanoma = system: M14 melanoma
MALME-3M melanoma = system: MALME-3M melanoma
MCF7 breast = system: MCF7 breast
MDA-MB-231 breast = system: MDA-MB-231 breast
MDA-MB-435 = system: MDA-MB-435
MDA-N = system: MDA-N
NCI-H226 lung = system: NCI-H226 lung
NCI-H23 lung = system: NCI-H23 lung
NCI-H460 lung = system: NCI-H460 lung
NCI-H522 lung = system: NCI-H522 lung
NCI/ADR-RES ovarian = system: NCI/ADR-RES ovarian
OVCAR-3 ovarian = system: OVCAR-3 ovarian
OVCAR-4 ovarian = system: OVCAR-4 ovarian
OVCAR-5 ovarian = system: OVCAR-5 ovarian
OVCAR-8 ovarian = system: OVCAR-8 ovarian
PC-3 prostate = system: PC-3 prostate
RPMI-8226 leukemia = system: RPMI-8226 leukemia
RXF 393 renal = system: RXF 393 renal
SF-268 CNS = system: SF-268 CNS
SF-295 CNS = system: SF-295 CNS
SF-539 CNS = system: SF-539 CNS
SK-MEL-2 melanoma = system: SK-MEL-2 melanoma
SK-MEL-28 melanoma = system: SK-MEL-28 melanoma
SK-MEL-5 melanoma = system: SK-MEL-5 melanoma
SK-OV-3 ovarian = system: SK-OV-3 ovarian
SN12C renal = system: SN12C renal
SNB-19 CNS = system: SNB-19 CNS
SNB-75 CNS = system: SNB-75 CNS
SR leukemia = system: SR leukemia
SW-620 colon = system: SW-620 colon
T-47D breast = system: T-47D breast
U251 CNS = system: U251 CNS
UACC-257 melanoma = system: UACC-257 melanoma
UACC-62 melanoma = system: UACC-62 melanoma
UO-31 renal = system: UO-31 renal

## NC(=O)NC(=O)c1cccc(NC(=O)CI)c1
A498 renal
  TGI: 805 nM
A549 NSCLC
  TGI: 12400 nM
ACHN renal
  TGI: 1580 nM
BT-549 breast
  TGI: 2440 nM
CAKI-1 renal
  TGI: 662 nM
CCRF-CEM leukemia
  TGI: 145 nM
COLO 205 colon
  TGI: < 10 nM
DU-145 prostate
  TGI: 103 nM
EKVX NSCLC
  TGI: 10400 nM
HCC-2998 colon
  TGI: 609 nM
HCT-116 colon
  TGI: 106 nM
HCT-15 colon
  TGI: 2060 nM
HL-60(TB) leukemia
  TGI: < 10 nM
HOP-62 NSCLC
  TGI: 1160 nM
HOP-92 NSCLC
  TGI: 1580 nM
HS 578T breast
  TGI: 146 nM
HT29 colon
  TGI: 60.7 nM
IGROV1 ovarian
  TGI: 796 nM
K-562 leukemia
  TGI: 1450 nM
KM12 colon
  TGI: 18500 nM
LOX IMVI melanoma
  TGI: 395 nM
M14 melanoma
  TGI: 408 nM
MALME-3M melanoma
  TGI: 899 nM
MCF7 breast
  TGI: 1560 nM
MDA-MB-231 breast
  TGI: 866 nM
MDA-MB-435
  TGI: 202 nM
MDA-N
  TGI: 25.3 nM
NCI-H226 lung
  TGI: 201 nM
NCI-H23 lung
  TGI: 2040 nM
NCI-H460 lung
  TGI: 286 nM
NCI-H522 lung
  TGI: < 10 nM
NCI/ADR-RES ovarian
  TGI: 5320 nM
OVCAR-3 ovarian
  TGI: < 10 nM
OVCAR-4 ovarian
  TGI: 5080 nM
OVCAR-5 ovarian
  TGI: 2120 nM
OVCAR-8 ovarian
  TGI: 188 nM
PC-3 prostate
  TGI: 1350 nM
RPMI-8226 leukemia
  TGI: 312 nM
RXF 393 renal
  TGI: 2130 nM
SF-268 CNS
  TGI: 71.7 nM
SF-295 CNS
  TGI: 2680 nM
SF-539 CNS
  TGI: 70.1 nM
SK-MEL-2 melanoma
  TGI: 837 nM
SK-MEL-28 melanoma
  TGI: 7490 nM
SK-MEL-5 melanoma
  TGI: 38.2 nM
SK-OV-3 ovarian
  TGI: 1060 nM
SN12C renal
  TGI: 326 nM
SNB-19 CNS
  TGI: 14700 nM
SNB-75 CNS
  TGI: 1750 nM
SR leukemia
  TGI: 416 nM
SW-620 colon
  TGI: 2030 nM
T-47D breast
  TGI: 4300 nM
U251 CNS
  TGI: 136 nM
UACC-257 melanoma
  TGI: 438 nM
UACC-62 melanoma
  TGI: 692 nM
UO-31 renal
  TGI: 1440 nM
